From patent US8536168B2 (Novartis AG, priority 2007, dated 2013)
pIC50: −log10 of the molar value. Where two headings read alike, the source gives them in different places.

How the values were obtained:
[1] = target: human Smoothened receptor (Homo sapiens, UniProt Q99835); assay: Smo binding assay, displacement of radio-labeled smoothened agonist, filter binding format (human); details: displacement of small molecule agonist of Smoothened, read-out: Human Smo bdg., IC50
Text: A Smo binding assay was developed using radio-labeled smoothened agonist for compound competition. Table 9 lists the IC50 for displacement of a small molecule agonist of Smoothened determined in a filter binding format for the mouse and human Smoothened receptor.

[2] = target: mouse Smoothened receptor (Mus musculus, UniProt P56726); assay: Smo binding assay, displacement of radio-labeled smoothened agonist, filter binding format (mouse); details: displacement of small molecule agonist of Smoothened, read-out: Mouse Smo bdg., IC50
Text: A Smo binding assay was developed using radio-labeled smoothened agonist for compound competition.

Gli-luciferase activity = assay: Reporter gene assay (RGA) in TMHh12 cells, antagonism of Gli-luciferase activity in the presence of a Smo agonist; type: cell-based
Procedure: Activity of the compounds was evaluated using a reporter gene assay (RGA) in TMHh12 cells.

[3] = 25 nM small molecule Smo agonist, read-out: RGA (25 nM Smo agonist) IC50
[4] = read-out: RGA (1 nM Smo agonist) IC50, 1 nM small molecule Smo agonist

Sequence of human Smoothened receptor (Q99835 28-787): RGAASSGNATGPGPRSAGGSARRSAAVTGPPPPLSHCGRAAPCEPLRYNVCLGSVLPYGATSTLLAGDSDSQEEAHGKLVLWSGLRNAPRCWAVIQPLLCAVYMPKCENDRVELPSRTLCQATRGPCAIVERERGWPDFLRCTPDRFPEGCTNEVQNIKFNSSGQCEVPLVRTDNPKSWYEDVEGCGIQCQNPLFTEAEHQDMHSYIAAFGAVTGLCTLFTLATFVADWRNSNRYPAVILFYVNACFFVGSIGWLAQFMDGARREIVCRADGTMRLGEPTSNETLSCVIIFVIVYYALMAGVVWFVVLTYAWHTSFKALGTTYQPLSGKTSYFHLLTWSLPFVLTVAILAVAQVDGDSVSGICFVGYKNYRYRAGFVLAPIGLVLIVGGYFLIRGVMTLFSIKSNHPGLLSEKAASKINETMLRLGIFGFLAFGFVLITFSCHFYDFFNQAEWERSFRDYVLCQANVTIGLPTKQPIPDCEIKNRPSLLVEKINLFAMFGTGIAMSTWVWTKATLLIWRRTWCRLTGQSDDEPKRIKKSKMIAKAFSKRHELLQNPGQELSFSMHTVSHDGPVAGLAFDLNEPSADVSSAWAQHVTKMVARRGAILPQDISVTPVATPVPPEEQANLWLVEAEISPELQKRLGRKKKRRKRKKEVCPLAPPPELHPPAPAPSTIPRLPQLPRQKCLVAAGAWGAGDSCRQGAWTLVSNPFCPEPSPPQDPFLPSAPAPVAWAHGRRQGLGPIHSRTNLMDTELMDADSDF
Sequence of mouse Smoothened receptor (P56726 33-793): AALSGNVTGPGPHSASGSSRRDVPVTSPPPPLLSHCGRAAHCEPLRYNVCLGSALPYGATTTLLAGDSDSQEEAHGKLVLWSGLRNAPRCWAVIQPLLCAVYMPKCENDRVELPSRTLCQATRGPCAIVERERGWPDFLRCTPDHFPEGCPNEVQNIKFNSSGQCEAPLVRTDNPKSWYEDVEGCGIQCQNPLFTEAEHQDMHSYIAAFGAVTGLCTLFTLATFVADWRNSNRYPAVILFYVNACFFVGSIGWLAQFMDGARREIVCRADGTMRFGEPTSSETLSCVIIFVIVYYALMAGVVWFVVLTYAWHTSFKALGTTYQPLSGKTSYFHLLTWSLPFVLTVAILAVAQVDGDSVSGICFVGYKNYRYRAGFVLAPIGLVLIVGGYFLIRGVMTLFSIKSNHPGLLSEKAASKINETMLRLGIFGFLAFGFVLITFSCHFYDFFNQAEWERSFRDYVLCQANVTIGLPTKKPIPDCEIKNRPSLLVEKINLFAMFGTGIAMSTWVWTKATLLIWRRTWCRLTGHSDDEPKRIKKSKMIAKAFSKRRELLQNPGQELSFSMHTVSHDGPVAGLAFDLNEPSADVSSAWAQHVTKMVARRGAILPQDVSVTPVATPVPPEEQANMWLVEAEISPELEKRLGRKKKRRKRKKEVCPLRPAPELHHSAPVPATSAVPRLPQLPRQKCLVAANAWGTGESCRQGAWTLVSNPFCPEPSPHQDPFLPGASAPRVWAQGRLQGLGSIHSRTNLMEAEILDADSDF

Row | Compound | pIC50 [1] | pIC50 [2] | pIC50 (Gli-luciferase activity; [3]) | pIC50 (Gli-luciferase activity; [4])
1 | COC(C)(C)c1ccc(N2CCN(c3nnc(Cc4ccccc4)c4ccccc34)CC2)nc1 [Example 161, 1-Benzyl-4-{-4-[5-(1-methoxy-1-methyl-ethyl)-pyridin-2-yl]-piperazin-1-yl}-phthalazine] | > 7.00 | > 7.00 | > 7.00 | > 7.00
2 | CCOC(=O)c1ccc(N2CCN(c3nnc(Cc4cccc(F)c4)c4ccccc34)CC2)nc1 [Example 185] | > 7.00 | > 7.00 | 5.00 to 6.00 | 6.00 to 7.00
3 | C[C@H]1CN(c2ccc(C#N)cn2)CCN1c1nnc(Cc2ccccc2)c2ccccc12 [Example 117] | > 7.00 | > 7.00 | 6.00 to 7.00 | > 7.00
4 | CC(C)(N)c1ccc(N2CCN(c3nnc(Cc4ccccc4)c4ccccc34)CC2)nc1 [Example 120, 2-(6-(4-(4-Benzylphthalazin-1-yl)piperazin-1-yl)pyridin-3-yl)propan-2-amine] | > 7.00 | > 7.00 | > 7.00 | > 7.00
5 | N#Cc1ccc(N2CCN(c3nnc(Cc4ccc5ccccc5c4)c4ccccc34)CC2)nc1 [Example 62] | > 7.00 | > 7.00 | 5.00 to 6.00 | > 7.00
6 | Cc1ccccc1Cc1nnc(N2CCN(c3ccc(C(C)(C)O)cn3)CC2)c2ccccc12 [Example 194] | > 7.00 | > 7.00 | 6.00 to 7.00 | > 7.00
7 | N#Cc1cccc(C(=O)N2CCC(c3cn(Cc4ccc(F)cc4)c4ccccc34)CC2)c1 [Example 94, 3-{4-[1-(4-Fluoro-benzyl)-1H-indol-3-yl]-piperidine-1-carbonyl}-benzonitrile] | 6.00 to 7.00 | 6.00 to 7.00 | 5.00 to 6.00 | 6.00 to 7.00
8 | O=C(c1ccc(N2CCN(c3nnc(Cc4ccccc4)c4ccccc34)CC2)nc1)N1CCOCC1 [Example 54k] | 6.00 to 7.00 | > 7.00 | 6.00 to 7.00 | > 7.00
9 | CC(C)(O)c1ccc(C2CCN(c3nnc(Cc4ccccc4)c4ccccc34)CC2)cc1 [Example 124] | 6.00 to 7.00 | 6.00 to 7.00 | 5.00 to 6.00 | > 7.00
10 | N#Cc1ccc(N2CCN(c3nnc(Cc4ccc(C(F)(F)F)cc4)c4ccccc34)CC2)nc1 [Example 63] | 6.00 to 7.00 | 6.00 to 7.00 | 5.00 to 6.00 | 6.00 to 7.00
11 | Cc1cc(Cc2ccc(F)cc2)nnc1N1CCN(c2ccc(C(F)(F)F)cn2)CC1 [Example 90] | > 7.00 | > 7.00 | 5.00 to 6.00 | > 7.00
12 | Cc1c(N2CCN(c3ccc(C(F)(F)F)cn3)CC2)nnc(Cc2ccccc2)c1CNCc1ccccc1 [Example 242, N-benzyl-1-(3-benzyl-5-methyl-6-(4-(5-(trifluoromethyl)pyridin-2-yl)piperazin-1-yl)pyridazin-4-yl)methanamine] | 5.00 to 6.00 | 5.00 to 6.00 | 5.00 to 6.00 | 5.00 to 6.00
13 | FC1CCN(Cc2ccc(N3CCN(c4nnc(Cc5ccccc5)c5ccccc45)CC3)nc2)CC1 [Example 227] | 6.00 to 7.00 | > 7.00 | 6.00 to 7.00 | > 7.00
14 | CC(c1ccccc1)c1nnc(N2CCN(c3ccc(C#N)cn3)CC2)c2ccccc12 (centres unmarked) [Example 68] | 5.00 to 6.00 | 5.00 to 6.00 | 5.00 to 6.00 | 6.00 to 7.00
15 | FC(F)(F)c1ccc(N2CCN(c3nnc(Cc4ccccc4)c4ccccc34)CC2)cc1 [Example 55, 1-Benzyl-4-[4-(4-trifluoromethyl-phenyl)-piperazin-1-yl]-phthalazine] | 6.00 to 7.00 | 6.00 to 7.00 | 5.00 to 6.00 | 6.00 to 7.00
16 | FC(F)(F)c1ccc(N2CCC(c3cn(Cc4ccccc4)c4ccccc34)CC2)nc1 [Example 97] | 6.00 to 7.00 | 6.00 to 7.00 | 5.00 to 6.00 | > 7.00
17 | CCOC(=O)c1cnc(N2CCN(c3nnc(Cc4ccccc4)c4ccccc34)C[C@H]2C(=O)OC)nc1C(F)(F)F [Example 147, 2-[(S)-4-(4-Benzyl-phthalazin-1-yl)-2-methoxycarbonyl-piperazin-1-yl]-4-trifluoromethyl-pyrimidine-5-carboxylic acid ethyl ester] | > 7.00 | 6.00 to 7.00 | 5.00 to 6.00 | 6.00 to 7.00
18 | COc1ccccc1Cc1nnc(N2CCN(c3ccc(C#N)cn3)CC2)c2ccccc12 [Example 175] | 5.00 to 6.00 | 6.00 to 7.00 | 5.00 to 6.00 | 6.00 to 7.00
19 | CC(=O)NCc1ccc(N2CCN(c3nnc(Cc4ccccc4)c4ccccc34)CC2)nc1 [Example 70, N-{6-[4-(4-Benzyl-phthalazin-1-yl)-piperazin-1-yl]-pyridin-3-ylmethyl}-acetamide] | 6.00 to 7.00 | 6.00 to 7.00 | 6.00 to 7.00 | > 7.00
20 | CC(O)(CO)c1ccc(N2CCN(c3nnc(Cc4ccccc4)c4ccccc34)CC2)nc1 (centres unmarked) [Example 167, 2-{6-[4-(4-Benzyl-phthalazin-1-yl)-piperazin-1-yl]-pyridin-3-yl}-propane-1,2-diol] | > 7.00 | > 7.00 | 6.00 to 7.00 | > 7.00

Row | Compound | pIC50 [1] | pIC50 [2] | pIC50 (Gli-luciferase activity; [3]) | pIC50 (Gli-luciferase activity; [4])
21 | C[C@@H]1CN(c2nnc(Cc3ccccc3)c3ccccc23)CCN1c1ccc(C(C)(C)O)cn1 [Example 154] | > 7.00 | > 7.00 | > 7.00 | > 7.00
22 | N#Cc1ccc(N2CCN(c3nnc(Cc4ccc(Cl)cc4)c4ccccc34)CC2)nc1 [Example 59] | > 7.00 | > 7.00 | 6.00 to 7.00 | > 7.00
23 | CC(O)(CO)c1cnc(N2CCN(c3nnc(Cc4ccccc4)c4ccccc34)CC2)cn1 (centres unmarked) [Example 166, 2-[4-(4-Benzyl-phthalazin-1-yl)-3,4,5,6-tetrahydro-2H-[1,2′]bipyrazinyl-5′-yl]-propane-1,2-diol] | > 7.00 | > 7.00 | 6.00 to 7.00 | > 7.00
24 | N#Cc1ccc(C(=O)N2CCC(c3cn(Cc4ccc(F)cc4)c4ccccc34)CC2)cc1 [Example 102] | 6.00 to 7.00 | 6.00 to 7.00 | – | 6.00 to 7.00
25 | Cc1c(Cc2ccccc2)nnc(N2CCN(c3ccc(C(F)(F)F)cn3)CC2)c1CNCc1ccccc1 [Example 241, N-benzyl-1-(6-benzyl-5-methyl-3-(4-(5-(trifluoromethyl)pyridin-2-yl)piperazin-1-yl)pyridazin-4-yl)methanamine] | 5.00 to 6.00 | 5.00 to 6.00 | 4.40 to 5.00 | 5.00 to 6.00
26 | N#Cc1cnc(N2CCN(c3nnc(Cc4ccccc4)c4ccccc34)CC2)nc1 [Example 39, 2-[4-(4-Benzyl-phthalazin-1-yl)-piperazin-1-yl]-pyrimidine-5-carbonitrile] | 6.00 to 7.00 | 6.00 to 7.00 | 6.00 to 7.00 | > 7.00
27 | O=C1CN(c2nnc(Cc3ccccc3)c3ccccc23)CCN1c1ccccc1 [Example 108] | 6.00 to 7.00 | 6.00 to 7.00 | 5.00 to 6.00 | 6.00 to 7.00
28 | COC(=O)c1ccc(Cc2nnc(N3CCN(c4ccc(C#N)cn4)CC3)c3ccccc23)cc1 [Example 179] | 6.00 to 7.00 | 6.00 to 7.00 | 4.40 to 5.00 | 6.00 to 7.00
29 | CC(C)(O)c1cnc(N2CCN(c3nnc(Cc4ccccc4)c4ccccc34)CC2)cc1C(F)(F)F [Example 148] | > 7.00 | > 7.00 | > 7.00 | > 7.00
30 | O=C(Cc1ccc(N2CCN(c3nnc(Cc4ccccc4)c4ccccc34)CC2)nc1)N1CCCC1 [Example 171, 2-{6-[4-(4-Benzyl-phthalazin-1-yl)-piperazin-1-yl]-pyridin-3-yl}-1-pyrrolidin-1-yl-ethanone] | > 7.00 | > 7.00 | 6.00 to 7.00 | > 7.00
31 | CN(Cc1ccc(N2CCN(c3nnc(Cc4ccccc4)c4ccccc34)CC2)nc1)C1CCOCC1 [Example 226] | 6.00 to 7.00 | > 7.00 | 6.00 to 7.00 | > 7.00
32 | FC(F)(F)c1ccc(N2CCN(c3nnc(Cc4ccccc4)c4[nH]cnc34)CC2)nc1 [Example 247, 7-Benzyl-4-[4-(5-trifluoromethyl-pyridin-2-yl)-piperazin-1-yl]-1H-imidazo[4,5-d]pyridazine] | 6.00 to 7.00 | 6.00 to 7.00 | 5.00 to 6.00 | 5.00 to 6.00
33 | C[C@@H]1CN(c2nnc(Cc3ccccc3)c3ccccc23)CCN1c1cnc(C(C)(C)O)cn1 [Example 156] | > 7.00 | > 7.00 | > 7.00 | > 7.00
34 | COC(=O)c1ccc(C2CCN(c3nnc(Cc4ccccc4)c4ccccc34)CC2)cc1 [Example 115] | 5.00 to 6.00 | 5.00 to 6.00 | 5.00 to 6.00 | 5.00 to 6.00
35 | CCOC(=O)c1ccc(N2CCN(c3nnc(Cc4ccccc4)c4ccccc34)CC2)cc1 [Example 5] | > 7.00 | > 7.00 | 6.00 to 7.00 | > 7.00
36 | N#Cc1ccc(N2CCN(c3nnc(Cc4ccc(F)cc4)c4c3CCCC4)CC2)nc1 [Example 93b] | 6.00 to 7.00 | 6.00 to 7.00 | 6.00 to 7.00 | 6.00 to 7.00
37 | N#Cc1cccc(C(=O)N2CCC(c3cn(Cc4ccccc4)c4ccccc34)CC2)c1 [Example 103] | 5.00 to 6.00 | 5.00 to 6.00 | 5.00 to 6.00 | 5.00 to 6.00
38 | CC(O)CC(=O)NCc1ccc(N2CCN(c3nnc(Cc4ccccc4)c4ccccc34)CC2)nc1 (centres unmarked) [Example 213] | 6.00 to 7.00 | 6.00 to 7.00 | 6.00 to 7.00 | > 7.00
39 | Fc1cnc(N2CCN(c3nnc(Cc4ccccc4)c4ccccc34)CC2)c(F)c1 [Example 52] | 6.00 to 7.00 | 6.00 to 7.00 | 5.00 to 6.00 | 6.00 to 7.00
